According to patent US20050107353A1, “Methods of treating lower urinary tract disorders using losigamone” (Dynogen Pharmaceuticals, Inc., priority 2003, published 2005):
pIC50: −log10 of the molar value. Entries after “also recorded” stand apart in the source; their conditions may differ. Where a name gives a salt, the structure may show the parent alone.

Key:
[1] = test system: acetic acid-induced reduction of bladder capacity; test: Dilute acetic acid model: bladder capacity by filling cystometry during continuous intravesical acetic acid irritation; type: in vivo, rat; settings: for post-test: reversal of bladder capacity reduction: rats; for effect on bladder capacity (reversal of acetic acid-induced reduction): increasing doses, rats during continuous irritation
Text: The objective of the current study was to determine the effect of TTX-R sodium channel modulators or use dependent sodium channel modulators on the ability to reverse the reduction in bladder capacity seen following continuous infusion of dilute acetic acid, a commonly used model of lower urinary tract disorders including overactive bladder.
Animal Preparation: Female rats (250-275 g BW) were anesthetized with urethane (1.2 g/kg) and a saline-filled catheter (PE-50) was inserted into either the jugular vein for intravenous (i.v.; saline vehicle) or the proximal duodenum for intraduodenal (i.d.; distilled water or 10% Tween 80 in saline as vehicle) drug administration. Via a midline lower abdominal incision, a flared-tipped PE 50 catheter was inserted into the bladder dome for bladder filling and pressure recording and secured by ligation. The abdominal cavity was moistened with saline and closed by covering with a thin plastic sheet in order to maintain access to the bladder for emptying purposes. Fine silver or stainless steel wire electrodes were inserted into the external urethral sphincter (EUS) percutaneously for electromyography (EMG).
Experimental Design: Saline was continuously infused at a rate of 0.055 ml/min via the bladder filling catheter for ≧60 minutes to obtain a baseline of lower urinary tract activity (continuous cystometry; CMG). Following the control period, a 0.25% acetic acid solution in saline was infused into the bladder at the same flow rate to induce bladder irritation. Following 30 minutes of AA infusion, 3 vehicle injections were made at 20 minute intervals to determine vehicle effects, if any. Subsequently, increasing doses (2-5) of Na^+ channel blocking compound were administered intravenously or intraduodenaly at half-log order increments at 30 or 60 minute intervals in order to construct a cumulative dose-response relationship. At the end of the control saline cystometry period, the third vehicle, and 20-50 minutes following each subsequent treatment, the infusion pump was stopped, the bladder was emptied by fluid withdrawal via the infusion catheter and a single filling cystometrogram was performed at the same flow rate in order to determine changes in bladder capacity caused by the irritation protocol and subsequent intravenous or intraduodenal drug administration.
Data were analyzed by non-parametric ANOVA for repeated measures (Friedman Test) with Dunn's Multiple Comparison test. All comparisons were made from the last vehicle measurement (AA/Veh 3) or the lowest dose of drug. P<0.050 was considered significant.

[2] = biological target: T1, TTX-R sodium currents in bladder afferent neurons (Rattus norvegicus, UniProt Q62968); test: Bladder sensory neuron sodium channel current model: whole cell patch-clamp of TTX-R sodium currents; type: cell-based; settings: for concentration-response effect on TTX-R sodium current amplitude: bath application, cumulative concentrations, bladder afferent neurons; for effect on inward TTX-R sodium current: 100 μM bath application, labeled bladder afferent neuron
T1 construct: Whole cell patch-clamp recordings were obtained from dye-labeled DRG neurons; endogenous in cells; host or cells: primary dissociated L6/S1 dorsal root ganglion neurons of Sprague-Dawley rats, dye-labelled bladder afferents
Description: Labeling of bladder afferent neurons: Adult female Sprague-Dawley rats (150-300 g) were deeply anesthetized with pentobarbital anesthesia and placed on isoflurane maintenance anesthesia. A ventral midline incision was made through the abdominal skin and musculature, exposing the urinary bladder. Five injections of the fluorescent dye Di-I (5 μl each of 25 mg/ml Di-I in DMSO) or Fast Blue (4% w/v) were made into the bladder smooth muscle wall to label primary afferent fibers innervating the bladder. The area was rinsed with sterile saline to eliminate nonspecific spread of dye, and the incision was closed. Rats recovered for 5-12 days to allow for transport of fluorescent dye from distal terminals to the cell somata of dorsal root ganglion (DRG) neurons. Labeled neurons were identified in vitro using fluorescence optics.
Neuronal cultures: Di-I injected rats were euthanized with pentobarbital anesthesia. Lumbar (L6) and sacral (S1) DRG were dissected from the vertebral column and placed in Dulbecco's modified Eagles medium (DMEM) containing 0.3% collagenase B for 60 min at 37° C. The cell solution was exchanged for a 0.25% trypsin in calcium/magnesium-free Dulbecco's phosphate-buffered saline solution, and further digested for 30 min at 37° C. Following a wash in fresh DMEM, ganglia were dissociated by a series of triturations using fire-polished Pasteur pipettes. DRG cells were plated on polylysine-treated glass coverslips. Cells were plated at a density of 0.5 DRG per coverslip in 1 ml DMEM supplemented with 10% FBS, NGF, and 100 U/ml penicillin/streptomycin. All experimental procedures involving rats were conducted under a protocol approved by an Institutional Animal Care and Use Committee. Small variations in the concentrations of reagents, incubation times, etc. may occur and are expected to give similar results.
In most experiments, neurons were incubated in culture medium containing the FITC-labeled lectin BSI-B4 (IB4, […]) at 37° C. for 5 min before recording. The coverslip was washed with extracellular recording solution for 1 min before being placed in a recording chamber mounted on the stage of an inverted microscope equipped with fluorescence optics.
Electrophysiology: Electrophysiologic evaluation of neurons occurred within 4-48 h of plating. Whole cell patch-clamp recordings were obtained from dye-labeled DRG neurons. Recordings were obtained in an extracellular recording solution (pH 7.4, 295-320 mosM) consisting of (in mM) 140 NaCl, 3 KCl, 1 CaCl2, 1 MgCl2, 0.1 CdCl2, 10 HEPES, and 10 glucose. Patch-clamp electrodes were pulled from borosilicate glass and fire polished to 2-6 MOhm tip resistance. The internal pipette recording solution (pH 7.3, 290-300 mosM) consisted of (in mM) 140 CsCl, 10 NaCl, 1 EGTA, and 10 HEPES. Tetrodotoxin (TTX, 0.3 uM) was included in the extracellular solution to block TTX-sensitive sodium currents. Variations in the concentrations and types of reagents used for solutions may occur and are expected to give similar results.
Sodium currents were recorded from DRG neurons using standard electrophysiologic protocols. Neurons were typically voltage-clamped at −50 mV. Currents were recorded using a patch-clamp amplifier and digitized at 3-10 kHz for acquisition. Neuronal input resistance and membrane capacitance were determined from the amplitude and kinetics of the current response to a voltage pulse from a holding potential of −50 mV. Series resistance was compensated 75-95% for all recordings. Leak currents were cancelled online using a standard P/4 protocol. Depolarizing steps from −90, −70, or −50 mV to 0 mV were delivered every 5 or 30 sec during drug application to determine the effects of drugs on sodium currents. For all cell types, baseline responses were recorded for a minimum of 10 min to ensure that the kinetics of the response was stable. A wash out or recovery period usually followed the drug application period. […]

T1 sequence (Q62968 whole entry): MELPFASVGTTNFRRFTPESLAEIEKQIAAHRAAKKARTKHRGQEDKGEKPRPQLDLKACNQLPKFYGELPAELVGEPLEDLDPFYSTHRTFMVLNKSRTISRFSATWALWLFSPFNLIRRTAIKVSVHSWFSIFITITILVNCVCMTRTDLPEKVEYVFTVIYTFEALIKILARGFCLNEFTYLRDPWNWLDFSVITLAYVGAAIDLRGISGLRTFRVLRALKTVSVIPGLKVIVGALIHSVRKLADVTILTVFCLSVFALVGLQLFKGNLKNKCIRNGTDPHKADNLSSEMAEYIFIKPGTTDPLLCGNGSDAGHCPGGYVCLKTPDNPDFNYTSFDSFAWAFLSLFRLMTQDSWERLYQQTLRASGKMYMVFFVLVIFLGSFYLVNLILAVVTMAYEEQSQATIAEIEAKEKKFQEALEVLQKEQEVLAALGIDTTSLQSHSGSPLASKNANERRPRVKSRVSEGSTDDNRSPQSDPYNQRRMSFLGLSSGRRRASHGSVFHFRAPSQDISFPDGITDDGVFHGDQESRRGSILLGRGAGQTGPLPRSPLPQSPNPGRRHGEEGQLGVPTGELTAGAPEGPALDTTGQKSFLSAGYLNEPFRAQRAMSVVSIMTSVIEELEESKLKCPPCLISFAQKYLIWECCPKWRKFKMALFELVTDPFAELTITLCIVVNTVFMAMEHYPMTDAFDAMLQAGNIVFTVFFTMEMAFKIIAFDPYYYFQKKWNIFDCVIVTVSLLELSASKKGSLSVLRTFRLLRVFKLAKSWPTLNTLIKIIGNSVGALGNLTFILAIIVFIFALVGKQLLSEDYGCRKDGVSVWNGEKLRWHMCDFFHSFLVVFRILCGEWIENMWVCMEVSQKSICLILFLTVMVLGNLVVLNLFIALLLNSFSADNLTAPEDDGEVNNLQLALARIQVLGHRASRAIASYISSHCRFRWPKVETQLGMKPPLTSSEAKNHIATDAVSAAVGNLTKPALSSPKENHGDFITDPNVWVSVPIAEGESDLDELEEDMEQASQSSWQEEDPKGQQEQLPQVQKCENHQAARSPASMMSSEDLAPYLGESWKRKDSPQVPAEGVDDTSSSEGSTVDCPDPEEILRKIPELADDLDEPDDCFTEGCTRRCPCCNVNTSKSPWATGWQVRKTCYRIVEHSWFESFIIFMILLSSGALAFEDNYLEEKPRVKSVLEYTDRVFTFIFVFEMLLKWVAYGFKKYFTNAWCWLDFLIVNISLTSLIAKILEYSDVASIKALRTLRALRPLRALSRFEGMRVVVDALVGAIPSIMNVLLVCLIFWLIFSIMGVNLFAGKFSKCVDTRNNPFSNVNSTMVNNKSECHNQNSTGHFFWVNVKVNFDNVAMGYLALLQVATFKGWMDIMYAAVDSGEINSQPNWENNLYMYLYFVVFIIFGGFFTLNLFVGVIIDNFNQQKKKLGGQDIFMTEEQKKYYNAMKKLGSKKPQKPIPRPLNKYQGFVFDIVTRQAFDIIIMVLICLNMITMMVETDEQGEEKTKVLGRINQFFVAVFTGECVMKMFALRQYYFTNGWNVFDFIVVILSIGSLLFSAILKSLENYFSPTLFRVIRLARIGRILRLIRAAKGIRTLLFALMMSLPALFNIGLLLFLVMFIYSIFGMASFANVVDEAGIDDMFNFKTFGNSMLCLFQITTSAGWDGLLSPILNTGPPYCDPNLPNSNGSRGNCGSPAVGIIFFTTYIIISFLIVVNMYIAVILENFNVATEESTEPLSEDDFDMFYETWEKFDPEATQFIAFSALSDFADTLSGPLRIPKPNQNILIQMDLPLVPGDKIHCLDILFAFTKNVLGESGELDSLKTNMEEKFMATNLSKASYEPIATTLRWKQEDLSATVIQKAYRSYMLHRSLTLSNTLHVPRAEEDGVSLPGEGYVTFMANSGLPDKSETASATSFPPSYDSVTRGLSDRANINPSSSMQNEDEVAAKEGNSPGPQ

## COC1=CC(=O)O[C@@H]1[C@@H](O)c1ccccc1Cl (relative stereo) [Losigamone, (5R*)-5-[(alphaS*)-o-Chloro-alpha-hydroxybenzyl]-4-methoxy-2(5H)-furanone]
[1]; 300 mg/kg dose, intraduodenal
  post-test: reversal of bladder capacity reduction: statistically significant reversal of bladder capacity reduction
[1]; intraduodenal
  effect on bladder capacity (reversal of acetic acid-induced reduction): capable of partially reversing the reduction in bladder capacity caused by acetic acid in a dose-dependent fashion; also recorded: dose-dependent and statistically significant reversal
[1]; intraduodenal, listed as losigamone
  effect on bladder capacity (reversal of acetic acid-induced reduction): dose-dependent, statistically significant increases in bladder capacity

## Nc1c(Br)cc(Br)cc1CNC1CCC(O)CC1 (centres unmarked) [Ambroxol]
[2]
  concentration-response effect on TTX-R sodium current amplitude: concentration-dependent reversible block; also recorded: reversible, concentration-dependent reduction in current amplitude
[2]; three bladder afferent neurons, 2-3 minute application, TTX 300 nM present, read-out: estimated IC50 for block of TTX-R sodium currents
  pIC50: ~4.82
[1]; 300 mg/kg dose, intraduodenal
  post-test: reversal of bladder capacity reduction: statistically significant reversal of bladder capacity reduction
[1]; intraduodenal
  effect on bladder capacity (reversal of acetic acid-induced reduction): capable of partially reversing the reduction in bladder capacity caused by acetic acid in a dose-dependent fashion; also recorded: dose-dependent and statistically significant reversal
[1]; intraduodenal, listed as ambroxol
  effect on bladder capacity (reversal of acetic acid-induced reduction): dose-dependent, statistically significant increases in bladder capacity

## NC(=O)N1c2ccccc2C=Cc2ccccc21 [Carbamazepine]
[1]; 100 mg/kg dose, intraduodenal
  post-test: reversal of bladder capacity reduction: statistically significant reversal of bladder capacity reduction
[1]; intraduodenal
  effect on bladder capacity (reversal of acetic acid-induced reduction): capable of partially reversing the reduction in bladder capacity caused by acetic acid in a dose-dependent fashion; also recorded: dose-dependent and statistically significant reversal
[1]; intraduodenal, listed as carbamazepine
  effect on bladder capacity (reversal of acetic acid-induced reduction): dose-dependent, statistically significant increases in bladder capacity

## Cc1cccc(C)c1OCC(C)N (centres unmarked) [Mexiletine, 1-(2,6-Dimethylphenoxy)-2-propanamine hydrochloride]
[1]; 30 mg/kg dose, intraduodenal
  post-test: reversal of bladder capacity reduction: statistically significant reversal of bladder capacity reduction
[1]; intraduodenal, hydrochloride
  effect on bladder capacity (reversal of acetic acid-induced reduction): capable of partially reversing the reduction in bladder capacity caused by acetic acid in a dose-dependent fashion; also recorded: dose-dependent and statistically significant reversal
[1]; intraduodenal, listed as mexilitine, hydrochloride
  effect on bladder capacity (reversal of acetic acid-induced reduction): dose-dependent, statistically significant increases in bladder capacity

## C[C@H](NCc1ccc(OCc2ccccc2F)cc1)C(N)=O [Ralfinamide, (+)-2(S)-[4-(2-Fluorobenzyloxy)benzylamino]propionamide]
[2]
  effect on inward TTX-R sodium current: blocked the current
[2]; 100 μM, three neurons, holding potential −50 mV, pulse to 0 mV
  peak TTX-R sodium current: 36±6 % of control
[1]; 30 mg/kg dose, intraduodenal
  post-test: reversal of bladder capacity reduction: statistically significant reversal of bladder capacity reduction
[1]; intraduodenal
  effect on bladder capacity (reversal of acetic acid-induced reduction): capable of partially reversing the reduction in bladder capacity caused by acetic acid in a dose-dependent fashion; also recorded: dose-dependent and statistically significant reversal
[1]; intraduodenal, listed as ralfinamide
  effect on bladder capacity (reversal of acetic acid-induced reduction): dose-dependent, statistically significant increases in bladder capacity

## CN1CCN(c2ncc(-c3cc(Cl)cc(Cl)c3Cl)c(N)n2)CC1 [Sipatrigine, 4-Amino-2-(4-methylpiperazin-1-yl)-5-(2,3,5-trichlorophenyl)pyrimidine]
[2]
  effect on inward TTX-R sodium current: blocked the current
  concentration-response effect on TTX-R sodium current amplitude: concentration-dependent reduction in current amplitude
[1]; 30 mg/kg dose, intraduodenal
  post-test: reversal of bladder capacity reduction: statistically significant reversal of bladder capacity reduction
[1]; 100 mg/kg dose, intraduodenal
  post-test: reversal of bladder capacity reduction: statistically significant reversal of bladder capacity reduction
[1]; intraduodenal
  effect on bladder capacity (reversal of acetic acid-induced reduction): capable of partially reversing the reduction in bladder capacity caused by acetic acid in a dose-dependent fashion; also recorded: dose-dependent and statistically significant reversal
[1]; intraduodenal, listed as sipatrigine
  effect on bladder capacity (reversal of acetic acid-induced reduction): dose-dependent, statistically significant increases in bladder capacity

## Cc1ccc(C(=O)C(C)CN2CCCCC2)cc1 (centres unmarked) [Tolperisone]
[1]; intravenous
  effect on bladder capacity (reversal of acetic acid-induced reduction): Neither Vinpocetine (FIG. 9) nor intravenous Tolperisone (FIG. 10) demonstrated statistically significant effects on bladder capacity; also recorded: not capable of significantly reversing the reduction in bladder capacity caused by acetic acid
[1]; intravenous, listed as tolperisone
  effect on bladder capacity (reversal of acetic acid-induced reduction): neither intraduodenal vinpocetine (n=6; 3-100 mg/kg) nor intravenous tolperisone (n=4; 3-10 mg/kg) demonstrated statistically significant effects on bladder capacity

## CCOC(=O)C1=C[C@]2(CC)CCCN3CCc4c(n1c1ccccc41)[C@@H]32 [Vinpocetine]
[1]; intraduodenal
  effect on bladder capacity (reversal of acetic acid-induced reduction): not capable of significantly reversing the reduction in bladder capacity caused by acetic acid; also recorded: Neither Vinpocetine (FIG. 9) nor intravenous Tolperisone (FIG. 10) demonstrated statistically significant effects on bladder capacity
[1]; intraduodenal, listed as vinpocetine
  effect on bladder capacity (reversal of acetic acid-induced reduction): neither intraduodenal vinpocetine (n=6; 3-100 mg/kg) nor intravenous tolperisone (n=4; 3-10 mg/kg) demonstrated statistically significant effects on bladder capacity
